Experimental data: patent US20090093460A1, “Compositions” (AstraZeneca AB, priority 2003, published 2009)

What was measured:
[1] = tested on: mice; assay: Mouse forced swim test; type: in vivo; settings: 5.0, 10.0 and 20.0 mg/kg sc, 15 minutes prior
Procedure: Methods: Mice were placed in cylinders of water (25.0° C.±1.5° C.) for 6 minutes. The amount of immobility was quantified during the last 4 minutes of each session. The experimental observer was blind to the treatment conditions. […] Imipramine 45.0 mg/kg and citalopram 15.0 mg/kg were measured as the salt and administered ip 60 minutes prior to the behavioural session.

[2] = tested on: mice; assay: Standard apomorphine climbing mouse assay; type: in vivo; settings: p.o.
From the text: The methods and procedures used can be found in Warawa et al., J. Med. Chem., 2001, 44 (3), 372-389, and are incorporated herein by reference.

[3] = target: dopamine D2 receptor (Homo sapiens, UniProt P14416); assay: In vitro binding, dopamine D2 receptor; settings: dihydrochloride salt; read-out: binding affinity K1
[4] = target: T1, brain serotonin 5-HT2 receptor (Homo sapiens, UniProt P28223); assay: In vitro binding, brain serotonin 5-HT2 receptor; settings: dihydrochloride salt; read-out: binding affinity K1
T1 construct: from tissue; host or cells: brain

[5] = target: T2, dopamine D1 receptor (Homo sapiens, UniProt P21728); assay: In vitro binding, dopamine D1 receptor; settings: dihydrochloride salt; read-out: binding affinity K1
T2 construct: from tissue; host or cells: brain

[6] = tested on: mice; assay: Tail suspension test; type: in vivo, mouse; settings: 30 mg/kg p.o., 60 minutes prior
Procedure: Antidepressant activity of 11-piperazin-1-yldibenzo[b,f][1,4]thiazepine was assessed in mice according to the tail suspension test. As shown in the results below, 11-piperazin-1-yldibenzo[b,f][1,4]thiazepine has antidepressant activity in mice.
In a first experiment, mice (n=10/group) were treated with vehicle, 2.0, 5.0, or 10.0 mg/kg of 11-piperazin-1-yldibenzo[b,f][1,4]thiazepine s.c. 15 minutes prior to the test session. Mice were suspended from their tails for 7 minutes. During the last 5 minutes of the test, the duration of immobility was recorded. In a second experiment, mice (n=10/group) were treated with vehicle, 30 mg/kg 11-piperazin-1-yldibenzo[b,f][1,4]thiazepine, or 30 mg/kg fluoxetine p.o. 60 minutes prior to the test session. Mice were suspended from their tails for 7 minutes. During the last 5 minutes of the test, the duration of immobility was recorded.

T1 sequence (P28223 whole entry): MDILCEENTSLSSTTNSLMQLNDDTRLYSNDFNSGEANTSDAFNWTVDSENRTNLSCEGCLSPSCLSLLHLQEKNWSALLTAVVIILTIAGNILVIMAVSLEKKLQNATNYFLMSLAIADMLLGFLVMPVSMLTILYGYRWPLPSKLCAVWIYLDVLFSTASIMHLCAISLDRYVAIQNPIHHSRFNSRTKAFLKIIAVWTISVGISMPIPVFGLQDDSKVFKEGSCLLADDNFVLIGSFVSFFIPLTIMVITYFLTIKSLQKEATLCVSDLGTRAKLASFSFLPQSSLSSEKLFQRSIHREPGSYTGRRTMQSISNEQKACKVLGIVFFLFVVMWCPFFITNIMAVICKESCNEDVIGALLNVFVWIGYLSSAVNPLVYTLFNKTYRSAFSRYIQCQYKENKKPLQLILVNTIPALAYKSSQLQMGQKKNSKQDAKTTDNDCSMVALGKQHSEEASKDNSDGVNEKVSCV
T2 sequence (P21728 whole entry): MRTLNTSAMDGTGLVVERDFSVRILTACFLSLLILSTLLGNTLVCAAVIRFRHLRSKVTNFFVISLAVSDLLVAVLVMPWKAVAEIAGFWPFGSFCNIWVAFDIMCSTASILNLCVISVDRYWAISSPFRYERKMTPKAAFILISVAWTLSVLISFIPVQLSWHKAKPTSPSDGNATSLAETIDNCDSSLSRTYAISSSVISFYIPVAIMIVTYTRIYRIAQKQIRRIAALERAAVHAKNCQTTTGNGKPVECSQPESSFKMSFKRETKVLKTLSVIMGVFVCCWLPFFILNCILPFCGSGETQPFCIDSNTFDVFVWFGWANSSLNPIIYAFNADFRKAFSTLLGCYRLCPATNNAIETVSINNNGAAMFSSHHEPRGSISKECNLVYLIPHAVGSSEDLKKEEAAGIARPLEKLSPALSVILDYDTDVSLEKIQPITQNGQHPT
Sequence of dopamine D2 receptor (P14416 whole entry): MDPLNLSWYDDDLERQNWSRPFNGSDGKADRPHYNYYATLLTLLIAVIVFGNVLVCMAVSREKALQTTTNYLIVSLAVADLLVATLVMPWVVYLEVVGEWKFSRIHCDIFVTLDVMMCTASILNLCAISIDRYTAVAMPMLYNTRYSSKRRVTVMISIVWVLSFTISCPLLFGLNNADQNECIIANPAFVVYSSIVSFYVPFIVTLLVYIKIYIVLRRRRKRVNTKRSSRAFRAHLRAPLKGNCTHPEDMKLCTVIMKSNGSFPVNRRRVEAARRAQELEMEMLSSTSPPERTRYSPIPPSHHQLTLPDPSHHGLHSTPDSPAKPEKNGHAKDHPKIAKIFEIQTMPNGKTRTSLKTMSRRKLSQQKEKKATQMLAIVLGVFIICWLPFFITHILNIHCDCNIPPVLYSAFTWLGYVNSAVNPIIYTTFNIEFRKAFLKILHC

OCCOCCN1CCN(C2=Nc3ccccc3Sc3ccccc32)CC1 [Quetiapine, reference compound]
antidepressant effect (immobility) [1]: no effect

Cl.Cl.c1ccc2c(c1)N=C(N1CCNCC1)c1ccccc1S2 [Example 2, 11-piperazin-1-yldibenzo[b,f][1,4]thiazepine, dihydrochloride salt]
in vivo antipsychotic activity [2]: not found to be efficacious
Ki [3]: 234 nM
Ki [4]: 27 nM
Ki [5]: 1490 nM

CNCCC(Oc1ccc(C(F)(F)F)cc1)c1ccccc1 (stereo not shown) [fluoxetine, reference compound]
reduction of immobility, fraction of that of the vehicle control group [6]: more than ½
duration of immobility compared to the vehicle control group ([6]; p<0.01): significantly reduced immobility
